According to ChEMBL document CHEMBL3244013, “Central nervous system activity of a novel class of annelated 1,4-benzodiazepines, aminomethylene-2,4-dihydro-1H-imidazo[1,2-a][1,4]benzodiazepin-1-ones” (J Med Chem, 1977):

Experiments:
Mus musculus [1] = assay: Induction of muscle relaxation in po dosed CD-1 mouse after 30 mins by rotary drum test; assay type: functional; conditions: CD-1, po, 0.5 h
Mus musculus [2] = assay: Acute toxicity in po dosed CD-1 mouse assessed as mortality after 24 hrs; assay type: organism-based; conditions: in vivo
Mus musculus [3] = assay: Anticonvulsant activity in po dosed CD-1 mouse assessed as protection against maximal electroshock-induced convulsion; assay type: functional; conditions: CD-1, po
Mus musculus [4] = assay: Anticonvulsant activity in po dosed CD-1 mouse assessed as protection against pentylenetetrazole-induced convulsion; assay type: functional; conditions: CD-1, po
Mus musculus [5] = assay: Potentiation of chlorprothixene-induced sedative effect in po dosed CD-1 mouse assessed as loss of righting reflex; assay type: functional; conditions: CD-1, po
Mus musculus [6] = assay: Potentiation of hexobarbital-induced sedative effect in po dosed CD-1 mouse assessed as loss of righting reflex after 30 secs; assay type: functional; conditions: CD-1, po
Mus musculus [7] = assay: Antianxiety activity in po dosed CD-1 mouse assessed as inhibition of foot shock-induced aggression after 30 mins relative to control; assay type: functional; conditions: CD-1, po, 0.5 h
Mus musculus [8] = assay: Anticonvulsant activity in po dosed CD-1 mouse assessed as protection against strychnine-induced convulsion after 30 mins; assay type: functional; conditions: CD-1, po, 0.5 h

SMILES | ED50 (Mus musculus [1]) [mg/kg] | ED50 (Mus musculus [2]) [mg/kg] | ED50 (Mus musculus [3]) [mg/kg] | ED50 (Mus musculus [4]) [mg/kg] | ED50 (Mus musculus [5]) [mg/kg] | ED50 (Mus musculus [6]) [mg/kg] | ED50 (Mus musculus [7]) [mg/kg] | ED50 (Mus musculus [8]) [mg/kg]
CN1CCN(/C=C2\N=C3CN=C(c4ccccc4)c4cc(Cl)ccc4N3C2=O)CC1 | 4.2 | > 1000 | 2.1 | 0.9 | 4.6 | 4.9 | 2.65 | 7.1
C/C(=C1/N=C2CN=C(c3ccccc3)c3cc(Cl)ccc3N2C1=O)N1CCNCC1 | > 50 | > 1000 | 14 | 4 | > 50 | 5.2 | > 20 | > 50
O=C1/C(=C/N2CCNCC2)N=C2CN=C(c3ccccc3)c3cc(Cl)ccc3N12 | > 50 | > 1000 | > 50 | 1.95 | 23 | 7.5 | > 20 | > 50
CCCN1CCN(/C=C2\N=C3CN=C(c4ccccc4)c4cc(Cl)ccc4N3C2=O)CC1 | 1.1 | > 1000 | 2.7 | 1 | 3.2 | 3.6 | 1.3 | 6.4
CN1CCN(/C=C2\N=C3CN=C(c4ccccc4F)c4cc(Cl)ccc4N3C2=O)CC1 | 2.6 | > 1000 | 0.27 | 0.115 | 1.35 | 0.21 | 0.34 | 1.25
CCN1CCN(/C=C2\N=C3CN=C(c4ccccc4F)c4cc([N+](=O)[O-])ccc4N3C2=O)CC1 | 0.37 | > 1000 | 2.6 | 0.18 | 4 | 0.72 | 0.64 | 3.75
CCCN/C=C1\NC2CN=C(c3ccccc3)c3cc(Cl)ccc3N2C1=O (centres undefined) | 2.8 | > 1000 | 4 | 1.55 | 2.6 | 3.9 | 0.92 | > 50
CCN/C=C1\N=C2CN=C(c3ccccc3)c3cc(Cl)ccc3N2C1=O | 1.8 | > 1000 | 10 | 4 | > 10 | 7.2 | 1.45 | > 50
CCN/C=C1\N=C2CN=C(c3ccccc3Cl)c3cc(Cl)ccc3N2C1=O | 11.5 | > 1000 | 18 | 0.39 | 9.6 | 0.27 | 1 | 25
CC(C)(C)N/C=C1\N=C2CN=C(c3ccccc3)c3cc(Cl)ccc3N2C1=O | 14.5 | > 1000 | 19 | 3.25 | 14 | 5 | 1.1 | > 50
O=C1/C(=C/N2CCN(c3ccccc3)CC2)N=C2CN=C(c3ccccc3)c3cc(Cl)ccc3N12 | > 50 | > 1000 | > 50 | 26 | > 50 | > 50 | > 50 | > 50
CCN(CC)CCN/C=C1\N=C2CN=C(c3ccccc3)c3cc(Cl)ccc3N2C1=O | > 50 | > 1000 | > 50 | 16 | > 50 | > 50 | > 20 | > 50
CC(C)N1CCN(/C=C2\N=C3CN=C(c4ccccc4)c4cc(Cl)ccc4N3C2=O)CC1 | 12 | > 1000 | 7 | 1.25 | 6.4 | 6.6 | 2.1 | 5.8
CNC1=Nc2ccc(Cl)cc2C(c2ccccc2)=[N+]([O-])C1 [CHLORDIAZEPOXIDE] | 6.8 |  | 8 | 1.9 | 4 | 64 | 7 | 5
CN1CCN(/C=C2\N=C3CN=C(c4ccccc4)c4cc([N+](=O)[O-])ccc4N3C2=O)CC1 | 8.6 | > 1000 | 4.2 | 0.92 | 4.5 | 3.6 | 2.2 | 6.6
CCCN/C=C1\N=C2CN=C(c3ccccc3Cl)c3cc(Cl)ccc3N2C1=O | 8 | > 1000 | > 30 | 1 | 5.6 | 0.06 | 2.4 | > 25
O=C1/C(=C/N2CCOCC2)N=C2CN=C(c3ccccc3)c3cc(Cl)ccc3N12 | 29 | > 1000 | 7 | 2.3 | 20.3 | > 50 | 2.4 | > 50
CN1CCCC/C1=C1\N=C2CN=C(c3ccccc3)c3cc(Cl)ccc3N2C1=O | > 50 | > 1000 | > 50 |  |  |  | 20 | 
CN(C)CCN(C)/C=C1\N=C2CN=C(c3ccccc3)c3cc(Cl)ccc3N2C1=O | > 50 | > 1000 |  |  | > 50 | > 50 |  | > 50
O=C1/C(=C/N2CCCCC2)N=C2CN=C(c3ccccc3)c3cc(Cl)ccc3N12 |  | > 1000 | > 50 | 16 | > 50 | 1 | > 20 | > 50
CN/C=C1\N=C2CN=C(c3ccccc3)c3cc(Cl)ccc3N2C1=O |  | > 1000 |  |  | > 50 | > 50 | 5.3 | > 50
O=C1/C(=C/NCCO)N=C2CN=C(c3ccccc3)c3cc(Cl)ccc3N12 | 2.6 | > 1000 | 9.5 |  |  | 3.6 | 1.5 | 16
O=CN1CCN(/C=C2\N=C3CN=C(c4ccccc4)c4cc(Cl)ccc4N3C2=O)CC1 |  | > 1000 |  |  | > 50 |  | > 20 | 
O=C1/C(=C/c2ccccc2)N=C2CN=C(c3ccccc3)c3cc(Cl)ccc3N12 |  | > 1000 |  | > 50 |  | > 50 |  | > 50
CN(C)c1ccc(/C=C2\N=C3CN=C(c4ccccc4)c4cc(Cl)ccc4N3C2=O)cc1 | > 50 | > 1000 |  | > 50 |  | > 50 | > 20 | > 50
O=C1/C(=C/NC2CCCCC2)N=C2CN=C(c3ccccc3)c3cc(Cl)ccc3N12 |  | > 1000 | 8.5 | 2.35 | 6.2 | 8.3 | 1.4 | 15
N/C=C1\N=C2CN=C(c3ccccc3)c3cc(Cl)ccc3N2C1=O | > 50 | > 1000 | > 50 | 7.1 | 4.3 | 1.65 |  | > 50
